Legend:
MAPKs (ERK, JNK subunit) = assay: Activation of MAPKs signaling in BMDMs; assay type: cell-based, mouse; settings: BMDMs, 0, 25, 50, 100 μg/mL, 30 min
Method: (§1) Mouse bone marrow-derived macrophages (BMDMs) were inoculated into a 6-well plate and cultured without serum for 16 h. For the detection of MAPKs and NF-κB, BMDMs were incubated with different concentrations of Ot-WHP (0, 25, 50, 100 μg/mL) for 30 min. For the detection of TGF-β/Smad signaling pathway, BMDMs were incubated with different concentrations of Ot-WHP (0, 25, 50, 100 μg/mL) for 24 h, or BMDMs were incubated with 100 μg/mL Ot-WHP, with or without TGF-β1 antibody.

Keratinocytes HaCat = assay: Keratinocyte proliferation, direct (CCK-8); assay type: cell-based; settings: HaCat, 25, 50, 100 μg/mL, 24 h
Method: (§2) Keratinocytes HaCat and mouse fibroblasts (5×10^3 cells/well, 100 μL/well) were inoculated into a 96-well plate, and incubated with different concentrations of Ot-WHP (25, 50, and 100 μg/mL). PBS was used as a control. After HaCat was incubated with Ot-WHP for 24 h, and the fibroblasts were incubated with Ot-WHP for 72 h, 10 μl of Cell Counting Kit-8 (CCK-8) solution was added to each well, and incubated for another 2-4 h at 37° C. The absorbency at 450 nm was detected on a microplate reader.

Smad (Smad2, Smad3) = assay: Activation of TGF-β/Smad signaling in BMDMs; assay type: cell-based, mouse
Method: as §1

α-SMA in fibroblasts [1] = assay: α-SMA expression in fibroblasts by Western blot, co-incubation with macrophages; assay type: cell-based, mouse; settings: fibroblasts co-incubated with macrophages
Method: (§3) HaCat was co-incubated with THP-1 derived macrophages, and mouse fibroblasts were co-incubated with mouse macrophages BMDMs. HaCat (1×10^5 cells/well) or mouse fibroblasts (1×10^5 cells/well) were inoculated into a 24-well plate (lower chamber) one day in advance. After adherence, corresponding macrophages (1×10^5 cells/well, 100 μL) and different concentrations of Ot-WHP (25, 50, 100 μg/mL) or Vehicle (PBS, control) were added to the co-incubation chamber (upper chamber). After HaCat was co-incubated with THP-1-derived macrophages for 24 h, and the fibroblasts were co-incubated with mouse macrophages BMDMs for 72 h, the co-incubated upper chamber was discarded, and the cell activity in the lower chamber was detected by CCK-8.
(§4) The method was the same as that in Example 8. The fibroblasts treated in Example 8 were lysed with RIPA cell lysis solution. The protein was extracted, and the expression of α-SMA was detected by Western blot. A higher expression level of α-SMA means a higher transformation of fibroblasts into […]. The supernatant of the fibroblasts treated in Example 8 was collected, and the production of collagen in the supernatant was quantitatively detected with an ELISA kit.

[2] = system: mouse bone marrow-derived macrophages (BMDMs); assay: Chemokine and cytokine production in BMDM supernatant; assay type: cell-based; settings: 25, 50, 100 μg/mL, 24 h, vs PBS
Method: To clarify why Ot-WHP can cause the migration of neutrophils and macrophages in the coexistence of macrophages, mouse bone marrow-derived macrophages (BMDMs, 5×10^5 cells/well, DMEM medium, 2% FBS) were plated in a 24-well plate, Ot-WHP (25, 50, 100 μg/mL) or an equal volume of PBS (Vehicle) were added, and cultured for 24 h. The supernatant was collected, and centrifuged at 10000×g for 10 min. The chemokines and cytokines were determined.

α-SMA in fibroblasts [3] = assay: α-SMA expression in fibroblasts by Western blot, direct; assay type: cell-based, mouse; settings: fibroblasts alone, treated as in Example 8
Method: as §2, §4

mouse fibroblasts [4] = assay: Fibroblast proliferation, direct (CCK-8); assay type: cell-based; settings: mouse fibroblasts, 25, 50, 100 μg/mL, 72 h
Method: as §2

macrophages = assay: Immunohistochemical count of macrophages (anti-F4/80) recruited to the wound; assay type: in vivo, mice; settings: natural Ot-WHP dripped to wound; days 2 and 3 after operation; vs negative control
Method: (§5) The mice were treated according to the method in Example 3. The drugs in the negative control group and the natural Ot-WHP group were dripped to wounds of corresponding mice. At specified time point (0.5, 1, 2, 3 days) after the operation, the mice were sacrificed. A biopsy tissue containing the wound center was taken, immobilized with 10% formalin, then dehydrated by ethanol, washed with xylene, and finally embedded in paraffin. The paraffin block was cut into 5 μm slices, deparaffinized, and hydrated, and antigen retrieval was performed for immunohistochemical analysis. The slice was blocked with 5% BSA for non-specific sites, incubated with the primary antibody (anti-Ly6G for neutrophils, and anti-F4/80 for macrophages) at 4° C., and immunostained with horseradish peroxidase and DBA. The infiltration by neutrophils and macrophages was measured by statistically counting the immunostained anti-Ly6G and anti-F4/80 cells.
(§6) FIGS. 4A1-A4 show the immunohistochemical results of neutrophils recruited on days 0.5 and 1 after operation of mice in different groups. FIGS. 4C1-C4 show the immunohistochemical results of macrophages recruited on days 2 and 3 after operation of mice in different groups. FIGS. 4B1-B2 show the statistical results of neutrophils recruited on days 0.5 and 1 after operation of mice in different groups. […]

neutrophils = assay: Immunohistochemical count of neutrophils (anti-Ly6G) recruited to the wound; assay type: in vivo, mice; settings: natural Ot-WHP dripped to wound; days 0.5 and 1 after operation; vs negative control
Method: as §5, §6

skin wounds of mice = assay: Chemokine and cytokine production in skin wound tissue homogenate; assay type: in vivo; settings: days 0, 0.5, 1, 2, 4, 6, vs PBS
Method: Then whether Ot-WHP can induce the production of chemokines and cytokines in the skin wounds of mice was tested. At specified time points (days 0, 0.5, 1, 2, 4, and 6), the wound tissue of the mice was removed and homogenized with 0.1 M PBS (containing 1 mM PMSF, 1 mL/g tissue) in a glass homogenizer. After the homogenization, the homogenate was centrifuged at 12000×g and 4° C. for 30 min. The supernatant was collected, and the chemokines (CXCL1 and CCL2) and cytokines (including TNF-α and TGF-β1) were determined.

fibroblasts [5] = assay: Collagen in fibroblast supernatant by ELISA, co-incubation with macrophages; assay type: cell-based, mouse; settings: fibroblasts co-incubated with macrophages
Method: as §3, §4

mouse fibroblasts [6] = assay: Fibroblast proliferation, co-incubation with mouse macrophages BMDMs (CCK-8); assay type: cell-based; settings: mouse fibroblasts with BMDMs, 25, 50, 100 μg/mL, 72 h
Method: as §3

mouse neutrophils [7] = assay: Transwell migration in co-incubation system with BMDMs in lower chamber; assay type: cell-based; settings: 25-100 μg/mL, 8 h
Method: (§7) In a co-incubation system, mouse bone marrow-derived macrophages (BMDMs, 4×10^6 cells/mL, 500 μL) resuspended in RPMI 1640 medium containing 2% FBS were plated in the lower chamber (24-well plate) of the co-incubation chamber. After adherence, the prepared mouse neutrophils (7×10^6 cells/mL, 100 μL) or bone marrow-derived macrophages (BMDMs, 7×10^6 cells/mL, 100 μL) were added to the Transwell chamber with a pore size of 3.0 μm (upper chamber, 24-well plate). Then 500 μL of Ot-WHP (25, 50, 100 μg/mL, dissolved in RPMI 1640 medium containing 2% FBS) or the culture medium (control) was added to the lower chamber, and then cultured in a cell incubator at 37° C. for 8 h. The cells in the upper chamber were collected and counted with a hemocytometer. The reduced cells in the upper chamber are the migrated cells

[8] = system: bone marrow-derived macrophages (BMDMs); assay: Transwell migration, direct (peptide in lower chamber); assay type: cell-based, mouse; settings: 25-100 μg/mL, 8 h, no macrophages in lower chamber
Method: (§8) To clarify how Ot-WHP chemoattracts neutrophils and macrophages to the wound area, the prepared mouse neutrophils or bone marrow-derived macrophages (BMDMs) were resuspended in RPMI 1640 medium containing 2% FBS at a cell density of 7×10^6 cells/mL. 100 μL was pipetted to a Transwell chamber with a pore size of 3.0 μm (upper chamber, 24-well plate). Then 500 μL of Ot-WHP (25, 50, 100 μg/mL, dissolved in RPMI 1640 medium containing 2% FBS) or the culture medium (control) was pipetted to the lower chamber, and then cultured in a cell incubator at 37° C. for 8 h. The cells in the lower chamber were collected and counted with a hemocytometer.

mouse skin wounds = assay: Skin wound healing in mice (8 mm biopsy punch wound on the back); assay type: in vivo, BALB/c mice; settings: 20 μL, 200 μg/mL dripped into wound once a day for 8 days; days 2, 4, 6, 8 after operation; vs PBS
Method: Experimental animals BALB/c mice, female, 6-8 weeks old, weighed 18-20 g, were purchased from Shanghai Slac Animal Co., Ltd. The mice were anesthetized by intraperitoneal injection of 2% sodium pentobarbital (0.1 mL/20 g), and the back was shaved with an electric razor and disinfected with iodophor. A hole was punched in the exposed back by a biopsy punch having a diameter of 8 mm. After the operation, the mice were kept in separate cages until the end of the experiment. The mice were randomly divided into 6 groups having 5 animals in each group, including a negative control group (20 μL PBS), a natural Ot-WHP group (20 μL, 200 μg/mL), a synthetic Ot-WHP group (20 μL, 200 μg/mL), a scrambled Ot-WHP group (SEQ ID NO:2, 20 μL, 200 μg/mL), an AH90 positive polypeptide control group (20 μL, 200 μg/mL), and an EGF growth factor control group (20 μL, 100 μg/mL). The drugs were dripped into corresponding wounds in mice once a day for 8 days.
FIGS. 3A1-A4 show the wound healing rate of mice in different experimental groups at 2, 4, 6, and 8 days after surgery. In the figures, Vehicle represents the negative control group; synthetic Ot-WHP represents the synthetic Ot-WHP group; Natural Ot-WHP represents the natural Ot-WHP group; and Scrambled Ot-WHP represents the scrambled Ot-WHP group.

[9] = system: NF-κB (IκBα, p65 subunit); assay: Activation of NF-κB signaling in BMDMs; assay type: cell-based, mouse; settings: BMDMs, 0, 25, 50, 100 μg/mL, 30 min
Method: as §1

[10] = system: bone marrow-derived macrophages (BMDMs); assay: Transwell migration in co-incubation system with BMDMs in lower chamber; assay type: cell-based, mouse; settings: 25-100 μg/mL, 8 h
Method: as §7

mouse neutrophils [11] = assay: Transwell migration, direct (peptide in lower chamber); assay type: cell-based; settings: 25-100 μg/mL, 8 h, no macrophages in lower chamber
Method: as §8

fibroblasts [12] = assay: Collagen in fibroblast supernatant by ELISA, direct; assay type: cell-based, mouse; settings: fibroblasts alone
Method: as §2, §4

HaCat = assay: Keratinocyte proliferation, co-incubation with THP-1 derived macrophages (CCK-8); assay type: cell-based; settings: HaCat with THP-1 derived macrophages, 25, 50, 100 μg/mL, 24 h
Method: as §3

Ot-WHP: immunomodulating peptide of 24 amino acids from concave-eared torrent frog skin, sequence ATAWDLGPHGIRPLRPIRIRPLCG (SEQ ID NO:1); natural (purified) or chemically synthesized (Ot-WHP Peptide; listed as Odorrana tormota)
activation of MAPKs (ERK, JNK subunit) signaling pathway (MAPKs (ERK, JNK subunit)): activates
proliferation of keratinocytes, direct (Keratinocytes HaCat): cannot directly promote the proliferation
activation of Smad (Smad2, Smad3) signaling pathway (Smad (Smad2, Smad3); BMDMs, 0, 25, 50, 100 μg/mL, 24 h): activates
dependence of Smad activation on TGF-β (Smad (Smad2, Smad3); BMDMs, 100 μg/mL, with or without TGF-β1 antibody): dependent on the production of TGF-β induced by Ot-WHP
expression of α-SMA by fibroblasts (transformation into fibrocytes) with coexisting macrophages (α-SMA in fibroblasts [1]): promote the expression of α-SMA by fibroblast
CCL2 production in BMDMs [2]: induces mouse BMDMs to produce
CXCL1 production in BMDMs [2]: induces mouse BMDMs to produce
CXCL2 production in BMDMs [2]: induces mouse BMDMs to produce
CXCL3 production in BMDMs [2]: induces mouse BMDMs to produce
IL-1β production in BMDMs [2]: induces mouse BMDMs to produce
IL-6 production in BMDMs [2]: induces mouse BMDMs to produce
TGF-β1 production in BMDMs [2]: induces mouse BMDMs to produce
TNF-α production in BMDMs [2]: induces mouse BMDMs to produce
expression of α-SMA in fibroblasts (transformation into fibrocytes), direct (α-SMA in fibroblasts [3]): no direct effect on the expression of α-SMA in fibroblasts
proliferation of fibroblasts, direct (mouse fibroblasts [4]): cannot directly promote the proliferation
migration of macrophages to the wound (macrophages): promote the migration of neutrophils and macrophages to the wound
migration of neutrophils to the wound (neutrophils): promote the migration of neutrophils and macrophages to the wound
CCL2 production in skin wounds (skin wounds of mice): effectively induce the production
CXCL1 production in skin wounds (skin wounds of mice): effectively induce the production
TGF-β1 production in skin wounds (skin wounds of mice): effectively induce the production
TNF-α production in skin wounds (skin wounds of mice): effectively induce the production
collagen production by fibroblasts with coexisting macrophages (fibroblasts [5]): promote the collagen production by fibroblasts
proliferation of fibroblasts when macrophages coexist (mouse fibroblasts [6]): can promote the proliferation
migration of neutrophils when macrophages coexist (mouse neutrophils [7]): significantly causes the migration
migration of macrophages, direct [8]: does not directly cause the migration
healing of mouse skin wounds (wound healing rate) (mouse skin wounds): significantly promote the healing of mouse skin wounds with an effect comparable to AH90 and EGF
activation of NF-κB (IκBα, p65 subunit) signaling pathway [9]: activates
migration of macrophages when macrophages coexist [10]: significantly causes the migration
migration of neutrophils, direct (mouse neutrophils [11]): does not directly cause the migration
collagen production by fibroblasts, direct (fibroblasts [12]): no direct effect on the collagen production by fibroblasts
proliferation of keratinocytes when macrophages coexist (HaCat): can promote the proliferation

scrambled Ot-WHP: scrambled Ot-WHP, SEQ ID NO:2, control peptide (PGPIPAHLGRRWAILIRPDLTRCG; Scrambled Ot-WHP Peptide) [reference compound]
healing of mouse skin wounds (wound healing rate) (mouse skin wounds): no activity to promote wound repair

Reference: patent US11884706B2, “Immunomodulating peptide derived from concave-eared torrent frog and use thereof” (priority 2019, dated 2024)
